In ChEMBL document CHEMBL2440076, “New triarylpyrazoles as broad-spectrum anticancer agents: design, synthesis, and biological evaluation” (Eur J Med Chem, 2013):

What was measured:
[1] = system: TK-10; experiment: Growth inhibition of human TK10 cells assessed as cell growth at 10 uM after 48 hrs by sulforhodamine B assay; format: functional; details: TK-10, 48 h, read-out: Activity
[2] = system: SW-620; experiment: Growth inhibition of human SW620 cells assessed as cell growth at 10 uM after 48 hrs by sulforhodamine B assay; format: functional; details: SW-620, 48 h, read-out: Activity
[3] = system: MDA-MB-468; experiment: Growth inhibition of human MDA-MB-468 cells assessed as cell growth at 10 uM after 48 hrs by sulforhodamine B assay; format: functional; details: MDA-MB-468, 48 h, read-out: Activity
[4] = system: HCT-15; experiment: Growth inhibition of human HCT15 cells assessed as cell growth at 10 uM after 48 hrs by sulforhodamine B assay; format: functional; details: HCT-15, 48 h, read-out: Activity
[5] = system: RPMI-8226; experiment: Growth inhibition of human RPMI8226 cells assessed as cell growth at 10 uM after 48 hrs by sulforhodamine B assay; format: functional; details: RPMI-8226, 48 h, read-out: Activity
[6] = system: MDA-MB-231; experiment: Growth inhibition of human MDA-MB-231 cells assessed as cell growth at 10 uM after 48 hrs by sulforhodamine B assay; format: functional; details: MDA-MB-231, 48 h, read-out: Activity
[7] = system: A549; experiment: Growth inhibition of human A549/ATCC cells assessed as cell growth at 10 uM after 48 hrs by sulforhodamine B assay; format: functional; details: A549, 48 h, read-out: Activity
[8] = system: SF-539; experiment: Growth inhibition of human SF539 cells assessed as cell growth at 10 uM after 48 hrs by sulforhodamine B assay; format: functional; details: SF-539, 48 h, read-out: Activity
[9] = system: HL-60(TB); experiment: Growth inhibition of human HL-60(TB) cells assessed as cell growth at 10 uM after 48 hrs by sulforhodamine B assay; format: functional; details: HL-60, 48 h, read-out: Activity
[10] = Growth inhibition of human HCC2998 cells assessed as cell growth at 10 uM after 48 hrs by sulforhodamine B assay; format: functional; details: HCC 2998, 48 h, read-out: Activity
[11] = system: T47D; experiment: Growth inhibition of human T47D cells assessed as cell growth at 10 uM after 48 hrs by sulforhodamine B assay; format: functional; details: read-out: Activity
[12] = system: A498; experiment: Growth inhibition of human A498 cells assessed as cell growth at 10 uM after 48 hrs by sulforhodamine B assay; format: functional; details: A498, 48 h, read-out: Activity
[13] = system: MOLT-4; experiment: Growth inhibition of human MOLT4 cells assessed as cell growth at 10 uM after 48 hrs by sulforhodamine B assay; format: functional; details: MOLT-4, 48 h, read-out: Activity
[14] = Growth inhibition of human NCI-ADR-RES cells assessed as cell growth at 10 uM after 48 hrs by sulforhodamine B assay; format: functional; details: read-out: Activity
[15] = system: SK-MEL-28; experiment: Growth inhibition of human SK-MEL-28 cells assessed as cell growth at 10 uM after 48 hrs by sulforhodamine B assay; format: functional; details: SK-MEL-28, 48 h, read-out: Activity
[16] = system: MDA-MB-435; experiment: Growth inhibition of human MDA-MB-435 cells assessed as cell growth at 10 uM after 48 hrs by sulforhodamine B assay; format: functional; details: MDA-MB-435, 48 h, read-out: Activity
[17] = system: HOP-92; experiment: Growth inhibition of human HOP92 cells assessed as cell growth at 10 uM after 48 hrs by sulforhodamine B assay; format: functional; details: HOP-92, 48 h, read-out: Activity
[18] = system: SN12C; experiment: Growth inhibition of human SN12C cells after 48 hrs by sulforhodamine B assay; format: functional
[19] = system: HCT-15; experiment: Growth inhibition of human HCT15 cells after 48 hrs by sulforhodamine B assay; format: functional; details: HCT-15, 48 h
[20] = system: Malme-3M; experiment: Growth inhibition of human MALME-3M cells after 48 hrs by sulforhodamine B assay; format: functional
[21] = system: SF-295; experiment: Growth inhibition of human SF295 cells after 48 hrs by sulforhodamine B assay; format: functional, cell-based; details: SF-295, 48 h
[22] = system: MOLT-4; experiment: Growth inhibition of human MOLT4 cells after 48 hrs by sulforhodamine B assay; format: functional; details: MOLT-4, 48 h
[23] = system: MDA-MB-231; experiment: Growth inhibition of human MDA-MB-231 cells after 48 hrs by sulforhodamine B assay; format: functional; details: MDA-MB-231, 48 h
[24] = system: HCT-116; experiment: Growth inhibition of human HCT116 cells after 48 hrs by sulforhodamine B assay; format: functional; details: HCT-116, 48 h
[25] = system: PC-3; experiment: Growth inhibition of human PC3 cells after 48 hrs by sulforhodamine B assay; format: functional, cell-based; details: PC-3, 48 h
[26] = system: CAKI-1; experiment: Growth inhibition of human CAKI-1 cells after 48 hrs by sulforhodamine B assay; format: functional; details: CAKI-1, 48 h
[27] = Growth inhibition of human Hs 578T cells after 48 hrs by sulforhodamine B assay; format: functional
[28] = system: COLO 205; experiment: Growth inhibition of human COLO205 cells after 48 hrs by sulforhodamine B assay; format: functional; details: COLO 205, 48 h
[29] = system: HOP-62; experiment: Growth inhibition of human HOP62 cells after 48 hrs by sulforhodamine B assay; format: functional; details: HOP-62, 48 h
[30] = system: T47D; experiment: Growth inhibition of human T47D cells after 48 hrs by sulforhodamine B assay; format: functional
[31] = system: NCI-H226; experiment: Growth inhibition of human NCI-H226 cells after 48 hrs by sulforhodamine B assay; format: functional; details: NCI-H226, 48 h
[32] = system: TK-10; experiment: Growth inhibition of human TK10 cells after 48 hrs by sulforhodamine B assay; format: functional; details: TK-10, 48 h
[33] = Growth inhibition of human NCI-ADR-RES cells after 48 hrs by sulforhodamine B assay; format: functional
[34] = system: MDA-MB-435; experiment: Growth inhibition of human MDA-MB-435 cells after 48 hrs by sulforhodamine B assay; format: functional, cell-based; details: MDA-MB-435, 48 h
[35] = read-out: LC50 (the source's name)

In the case of `COc1cc(-c2nn(-c3cccc(NC(=O)Nc4ccccc4)c3)cc2-c2ccncc2)ccc1Cl`, the growth at 10 µM [1] is reported as 116%, the growth at 10 µM [2] is reported as 82.8% and the growth at 10 µM [3] is reported as 83.4%. The growth at 10 µM [4] was 84.5%, the growth at 10 µM [5] was 68% and the growth at 10 µM [6] was 88%. The growth at 10 µM [7] was 79.3%, the growth at 10 µM [8] was 90% and the growth at 10 µM [9] was 91.3%. The growth at 10 µM [10] was 119%, the growth at 10 µM [11] was 75.6% and the growth at 10 µM [12] was 79.7%. For the same compound, the growth at 10 µM [13] was 57%, the growth at 10 µM [14] was 72.8% and the growth at 10 µM [15] was 86.3%. For the same compound, the growth at 10 µM [16] was 22.6%.
In the case of `COc1cc(-c2nn(-c3cccc(NC(=O)c4ccc(Br)c(C)c4)c3)cc2-c2ccncc2)ccc1Cl`, the growth at 10 µM [1] is reported as 91.3%, the growth at 10 µM [2] is reported as 82.7% and the growth at 10 µM [3] is reported as 83.5%. It also gave a growth at 10 µM [4] of 67.8%, a growth at 10 µM [5] of 64.7% and a growth at 10 µM [6] of 67%. It also gave a growth at 10 µM [7] of 78.3%, a growth at 10 µM [8] of 76.8% and a growth at 10 µM [9] of 114%. The growth at 10 µM [17] was 51.3%, the growth at 10 µM [10] was 88.2% and the growth at 10 µM [11] was 70.3%. For the same compound, the growth at 10 µM [12] was 68%, the growth at 10 µM [13] was 68.7% and the growth at 10 µM [14] was 66.5%. The growth at 10 µM [15] was 80.2% and the growth at 10 µM [16] was 34.7%.
`O=C(Nc1cccc(-n2cc(-c3ccncc3)c(-c3ccc(Cl)c(O)c3)n2)c1)c1ccccc1` gave a growth at 10 µM [1] of 109%, a growth at 10 µM [2] of 76.9% and a growth at 10 µM [3] of 64.1%. It also gave a growth at 10 µM [4] of 58.2%, a growth at 10 µM [5] of 60.5% and a growth at 10 µM [6] of 63.2%. The growth at 10 µM [7] was 52.6%, the growth at 10 µM [8] was 74.7% and the growth at 10 µM [9] was 167%. The growth at 10 µM [17] was 3.59%, the growth at 10 µM [10] was 76.8% and the growth at 10 µM [11] was 73.9%. The growth at 10 µM [12] was 72.3%, the growth at 10 µM [13] was 69.5% and the growth at 10 µM [14] was 62.7%. The growth at 10 µM [15] was 48.1% and the growth at 10 µM [16] was 56.1%.
`O=C(Nc1cccc(-n2cc(-c3ccncc3)c(-c3ccc(Cl)c(O)c3)n2)c1)c1ccc(Cl)c(C(F)(F)F)c1` showed a growth at 10 µM [1] of 119%, a growth at 10 µM [2] of 112% and a growth at 10 µM [3] of 98.2%. For the same compound, the growth at 10 µM [4] was 92.9%, the growth at 10 µM [5] was 98.1% and the growth at 10 µM [6] was 73.5%. The growth at 10 µM [7] was 88.8%, the growth at 10 µM [8] was 94.7% and the growth at 10 µM [9] was 196%. It also gave a growth at 10 µM [10] of 123%, a growth at 10 µM [11] of 100% and a growth at 10 µM [12] of 105%. It also gave a growth at 10 µM [13] of 79.5%, a growth at 10 µM [14] of 104% and a growth at 10 µM [15] of 94.1%. The growth at 10 µM [16] was 97.8%.
For `O=C(Nc1cccc(-n2cc(-c3ccncc3)c(-c3ccc(Cl)c(O)c3)n2)c1)c1ccc(N2CCOCC2)c(C(F)(F)F)c1`, the GI50 [18] was 22 µM, the TGI [18] was over 50 µM and the CC50 [18, 35] was over 50 µM. It also gave a growth at 10 µM [1] of 119%, a GI50 [19] of 1.81 µM and an LC50 [19] of over 50 µM. For the same compound, the TGI [19] was 25.3 µM, the growth at 10 µM [2] was 6.29% and the growth at 10 µM [3] was 66%. For the same compound, the GI50 [20] was 1.25 µM, the LC50 (concentration killing 50% of starting cells) [20] was over 50 µM and the TGI [20] was 4.08 µM. The growth at 10 µM [4] was 26.2%, the GI50 [21] was 1.71 µM and the IC50 [21] was 1.71 µM. For the same compound, the TGI [21] was 7.55 µM, the CC50 [21, 35] was 37 µM and the GI50 [22] was 2.37 µM. For the same compound, the TGI [22] was 36.7 µM, the CC50 [22, 35] was over 50 µM and the growth at 10 µM [5] was 5.19%. It also gave a GI50 [23] of 0.975 µM, an LC50 [23] of over 50 µM and a TGI [23] of 15.6 µM. It also gave a growth at 10 µM [6] of 23.4%, a growth at 10 µM [7] of 31.4% and a growth at 10 µM [8] of 41.6%. It also gave a growth at 10 µM [9] of 51.6%, a GI50 [24] of 2.87 µM and a TGI [24] of over 50 µM. The CC50 [24, 35] was over 50 µM, the growth at 10 µM [17] was 10.2% and the GI50 [25] was 2.15 µM. The IC50 [25] was 2.15 µM, the TGI [25] was over 50 µM and the CC50 [25, 35] was over 50 µM. For the same compound, the GI50 [26] was 2.78 µM, the TGI [26] was 24.6 µM and the CC50 [26, 35] was over 50 µM. For the same compound, the growth at 10 µM [10] was 56.4%, the GI50 [27] was 1.85 µM and the TGI [27] was over 50 µM. It also gave a CC50 [27, 35] of over 50 µM, a growth at 10 µM [11] of 69.4% and a GI50 [28] of over 50 µM. For the same compound, the LC50 (concentration killing 50% of cells) [28] was over 50 µM, the TGI [28] was over 50 µM and the growth at 10 µM [12] was 101%. It also gave a growth at 10 µM [13] of 29.1%, a GI50 [29] of 9.38 µM and a TGI [29] of over 50 µM. It also gave a CC50 [29, 35] of over 50 µM, a growth at 10 µM [14] of 43.9% and a GI50 [30] of 35.9 µM. It also gave a TGI [30] of over 50 µM, a CC50 [30, 35] of over 50 µM and a GI50 [31] of over 50 µM. It also gave a TGI [31] of over 50 µM, a CC50 [31, 35] of over 50 µM and a GI50 [32] of 21.3 µM. The TGI [32] was over 50 µM, the CC50 [32, 35] was over 50 µM and the growth at 10 µM [15] was 1.14%. The GI50 [33] was 2.86 µM, the TGI [33] was over 50 µM and the CC50 [33, 35] was over 50 µM. For the same compound, the growth at 10 µM [16] was 35.2%, the GI50 [34] was 2.04 µM and the IC50 [34] was 2.04 µM. For the same compound, the TGI [34] was over 50 µM and the CC50 [34, 35] was over 50 µM.
